# Experimental data as given in patent US6762052B1, “DNA sequence encoding flavin-containing monooxygenase” (priority 1993, dated 2004).
# Where a chain is given by its changes, count along the chain named. Like-named read-outs stand apart in the source and are kept apart here.
# Assays:
# [1] = system: Human Liver Microsomes; experiment: in vitro
# Protocol: (§1) In all cases examined, product formation was directly determined by HPLC analysis of organic extracts.
# (§2) Human liver samples were obtained from the Department of Surgery (UCSF) and with a protocol from the Medical College of Wisconsin (S. Wrighton).
# (§3) A typical incubation mixture (final volume 0.25 ml) contained hepatic microsomes (0.4 mg of protein) or bacterial lysate (2.3 mg of protein), NADP^+ (0.5 mM), glucose-6-phosphate (2.0 mM), glucose-6-phosphate dehydrogenase (1 IU), DETAPAC (0.8 mM) and potassium phosphate buffer (50 mM, pH 8.4). Reactions were initiated by the addition of substrate and terminated at designated times by the addition of three volumes of cold dichloromethane, mixed thoroughly and centrifuged to separate the aqueous and organic fractions. N- and S-oxide metabolic products in the resulting organic extracts were separated and quantified by HPLC. […] Thiobenzamide and thiobenzamide S-oxide were quantified with this same, HPLC system employing a mobile phase of methanol/acetonitrile/60% perchloric acid (20:80:0.016, v/v) which gave retention volumes of 2.7 and 7.0 ml, respectively. […] The major metabolites formed in the incubations were also subjected to mass spectral analysis after extraction of isolated HPLC fractions.
# (§4) RPLC of the S-oxide diastereomers with a Chiracel OT chiral analytical column (25 cm×0.15 cm inner diameter, Daicel Chemical Co., New York, N.Y.) was accomplished with a Beckman system, Kratos UV detector (240 nm) and a Hewlett Packard Integrator. […] Quantification was accomplished by comparing integrated HPLC peak areas after taking into account the difference in the extinction coefficients at 240 nm. Likewise, the cis and trans S-oxide diasteromers of (+)- and (−)-2-methyl-1,-benzodithiole were separated with a Chiracel OT chiral analytical column.
# [2] = target: T1, adult human liver flavin-containing monooxygenase (form 3) (Homo sapiens, UniProt P31513, E158K); experiment: N- and S-oxygenation by cDNA-expressed HLFMO 3 (solubilized protein from E. coli transformed with pTrcHLFMO 3), HPLC; details: for Vmax, Expressed HLFMO / Km: N- or S-oxide formation, for the 4-bromophenyl-1,3-oxathiolanes formation of the trans S-oxide; for Km: read-out: Km, Expressed HLFMO
# T1 sequence (P31513 1-532 E158K): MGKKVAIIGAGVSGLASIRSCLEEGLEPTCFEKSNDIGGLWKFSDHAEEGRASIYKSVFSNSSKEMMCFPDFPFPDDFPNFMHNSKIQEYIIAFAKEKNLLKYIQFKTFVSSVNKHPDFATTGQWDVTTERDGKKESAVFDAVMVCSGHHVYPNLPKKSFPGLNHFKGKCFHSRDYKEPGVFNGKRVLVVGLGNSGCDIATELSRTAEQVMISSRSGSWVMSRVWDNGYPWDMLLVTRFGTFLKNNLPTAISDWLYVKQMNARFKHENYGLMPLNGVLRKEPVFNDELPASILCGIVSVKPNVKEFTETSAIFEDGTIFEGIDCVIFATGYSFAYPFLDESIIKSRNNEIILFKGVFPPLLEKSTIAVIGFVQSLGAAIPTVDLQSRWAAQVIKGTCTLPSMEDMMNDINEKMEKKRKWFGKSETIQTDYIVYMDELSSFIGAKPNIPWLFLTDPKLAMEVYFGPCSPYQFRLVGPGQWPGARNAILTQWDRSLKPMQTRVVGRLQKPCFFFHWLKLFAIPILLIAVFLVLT
# Protocol: as §1
# Competent NM522 Escherichia coli cells were transformed with the pTrc HLFMO 3 plasmid. […] After inoculation with a fresh overnight culture of NM522 containing pTrcHLFMO 3, the culture was grown at 37° C. until Abs600 was approximately 0.5 absorbance units. Finally, IPTG (0.8 mM) was added to the culture to induce expression of protein and the culture was left to grow overnight at 37° C.
# The bacterial pellet was resuspended in 5 volumes of 50 mM potassium phosphate buffer (pH 8.4) containing 1% Triton X-100, 0.1% L-, α-phosphatidylcholine (L-α-lecithin) from egg yolk, 500 μM PMSF, and 1 mM EDTA. The mixture was sonicated and then centrifuged to remove cellular debris. As a control, bacterial lysate extracts from IPTG-induced pTrc99A-transformed NM522 cells (i.e., pTrc99A without the HLFMO 3 cDNA insert) were prepared under the same conditions.
# as §2, §3, §4
# [3] = target: T2, lys158-HFMO3-MBP (Homo sapiens, UniProt P31513, E158K); experiment: Substrate oxygenation by lys158-HFMO3-MBP fusion protein, HPLC; details: human, 15 min, 200 µM, pH 9
# T2 sequence (P31513 2-532 E158K): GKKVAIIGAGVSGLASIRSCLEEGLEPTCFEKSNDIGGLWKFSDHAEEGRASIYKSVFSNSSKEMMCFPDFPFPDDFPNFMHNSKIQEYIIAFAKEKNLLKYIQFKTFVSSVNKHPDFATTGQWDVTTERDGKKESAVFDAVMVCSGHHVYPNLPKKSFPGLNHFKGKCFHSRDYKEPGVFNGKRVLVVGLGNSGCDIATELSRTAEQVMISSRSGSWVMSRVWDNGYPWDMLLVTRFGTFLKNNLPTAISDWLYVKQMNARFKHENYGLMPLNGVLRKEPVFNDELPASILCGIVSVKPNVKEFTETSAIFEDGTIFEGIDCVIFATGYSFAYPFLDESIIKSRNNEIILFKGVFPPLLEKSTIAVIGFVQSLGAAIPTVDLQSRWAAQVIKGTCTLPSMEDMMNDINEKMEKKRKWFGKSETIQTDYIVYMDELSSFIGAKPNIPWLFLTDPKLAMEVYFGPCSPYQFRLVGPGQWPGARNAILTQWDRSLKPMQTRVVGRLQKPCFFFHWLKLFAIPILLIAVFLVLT
# Protocol: (§5) For HFMO3-MBP assay, all HFMO3-MBP incubations were done as follows: Into a test tube was added DETAPAC (1.2 mM, final concentration for a 250 μl reaction) followed by the addition of 60 μl NADPH generating system (0.4 mM NADP, 0.4 mM glucose-6-phosphate, and 20 μl of a 50 units mI^−1 glucose-6-phosphate dehydrogenase). The tube was chilled on ice and buffer and enzyme were added as described below for individual experiments to give a volume of 240 μl. The incubation was initiated by the addition of 5-DTP (10 μl of 5 mM) and placed in a shaking water bath at 37° C. for 10 min (unless specified otherwise). The incubation was stopped by the addition of 1.0 ml of ice-cold CH2Cl2. Following the addition of sodium carbonate (approx. 20 mg), the culture tube was vortexed, centrifuged (2000×g, 10 min), and the organic layer was removed and transferred to a 1.5 ml microfuge tube. The organic solvent was evaporated under a stream of Ar(g) to dryness and the residue was taken up in MeOH (300 μl) for determination HPLC analysis.
# (§6) Data was analyzed with a Hitachi D-2500 integrator.
# (§7) MTS-oxygenation assays were carried out under the same buffer, temperature, time and volume conditions, as for the N-oxygenation assays. The reactions were initiated upon addition of 10 μl of a 5 mM solution of MTS. The reaction was quenched with the addition of 700 μl of 80% CH3CN:20% hexane then 20 mg NaCl(s) and vortexed vigorously for 10 sec. The quenched reactions were then centrifuged briefly to separate the phases. The organic layer, containing product and substrate, was removed and used directly for HPLC analysis.
# (§8) All other instruments used were the same as above for the N-oxygenation reactions. Conditions for elution were 50% CH3CN/H2O (v:v) with a flow rate gradient as follows: 1.5 ml min^−1 from 0 to 4 min., 1.5-2.5 ml min^−1 from 4 to 5 min, 2.5 ml min^−1 from 5 to 15 min.
# Trimethylamine is commonly ingested in foodstuffs or it is available in the diet of humans from choline and other sources. Trimethylamine (TMA) is exclusively eliminated in humans by metabolism to trimethylamine N-oxide (TMANO). […] Thus, urinary TMANO formation provides a simple, reliable and direct assay of FMO3 activity in adult humans. Analysis of TMA to TMANO ratios provides a direct means of phenotyping adult humans for FMO3 activity. Phenotyping FMO3 activity in humans would provide a simple means of evaluating the relationship between the presence of FMO3 and various disease conditions. […]
# [4] = target: T3, glu158-HFMO3-MBP (Homo sapiens, UniProt P31513); experiment: Substrate oxygenation by glu158-HFMO3-MBP fusion protein, HPLC; details: human, 15 min, 200 µM, pH 9
# T3 sequence (P31513 2-532): T2 sequence (P31513 2-532 E158K) with K157E
# Protocol: as §5, §6, §7, §8
# Trimethylamine is commonly ingested in foodstuffs or it is available in the diet of humans from choline and other sources. Trimethylamine (TMA) is exclusively eliminated in humans by metabolism to trimethylamine N-oxide (TMANO). […]
molecule,measurement,setting,value
"(−)-4-bromophenyl-1,3-oxathiolane [(-)-4-Bromophenyl-1,3-oxathiolane]",Km,[1],166 µM
same,"Vmax, Human Liver Microsomes",[1],5.2 nmol/min/mg of protein
same,"trans S-oxide formation rate, Human Liver Microsomes",[1],2.4 ± 0.9 nmol/min/mg of protein
same,"trans S-oxide, % of S-oxide product, Human Liver Microsomes",[1],100%
same,"substrate activity for human liver microsomes and expressed HLFMO 3, in words",[2],excellent substrates
same,"trans S-oxide formation rate, Expressed HLFMO",[2],0.7 ± 0.1 nmol/min/mg of protein
same,"trans S-oxide, % of S-oxide product, Expressed HLFMO",[2],100%
same,"Vmax, Expressed HLFMO",[2],2.94 nmol/min/mg of protein
same,Km,[2],311 µM
"(+)-4-bromophenyl-1,3-oxathiolane",Km,[1],50 µM
same,"Vmax, Human Liver Microsomes",[1],2.87 nmol/min/mg of protein
same,"cis S-oxide formation rate, Human Liver Microsomes",[1],(5.3 ± 0.9) nmol/min/mg of protein
same,"cis S-oxide, % of S-oxide product, Human Liver Microsomes",[1],40.4%
same,"trans S-oxide formation rate, Human Liver Microsomes",[1],7.8 ± 1.7 nmol/min/mg of protein
same,"trans S-oxide, % of S-oxide product, Human Liver Microsomes",[1],59.5%
same,"cis S-oxide, % of S-oxide product, Expressed HLFMO",[2],38.5%
same,"substrate activity for human liver microsomes and expressed HLFMO 3, in words",[2],excellent substrates
same,"trans S-oxide formation rate, Expressed HLFMO",[2],0.8 ± 0.2 nmol/min/mg of protein
same,"trans S-oxide, % of S-oxide product, Expressed HLFMO",[2],61.4%
same,"Vmax, Expressed HLFMO",[2],0.180 nmol/min/mg of protein
same,Km,[2],142 µM
CN(C)CCCCCCN1c2ccccc2Sc2ccc(C(F)(F)F)cc21 [Compound 6],"substrate activity for human liver microsomes and expressed HLFMO 3, in words",[2]; human liver microsomes and solubilized protein from E. coli transformed with pTrcHLFMO 3,better substrates
same,pH-optimum for tertiary amine N-oxygenation,[2]; microsomal protein and expressed HLFMO 3 gave virtually identical pH-rate profiles,approximately 10
same,midpoint of the pH-rate profile of N-oxygenation,[2]; microsomes and expressed HLFMO 3,~9.5
"4-bromophenyl-1,3-oxathiolane",pH of maximum S-oxygenase activity,[2]; in the presence of microsomes and expressed HLFMO 3,~8.5
"CN(C)CCCN1c2ccccc2Sc2ccc(Cl)cc21 [Chlorpromazine, chlorpromazine]","N-oxide formation, Human Liver Microsomes","[1]; human, 0.1 mM, pH 8.4",58.9 ± 7.4 pmol/min/mg of protein
same,"S-oxide formation, Human Liver Microsomes","[1]; human, 0.1 mM, pH 8.4",29.3 ± 3.7 pmol/min/mg of protein
same,"substrate activity for human liver microsomes and expressed HLFMO 3, in words",[2],detectable
same,"N-oxide formation, Expressed HFLMO","[2]; human, 0.1 mM, pH 8.4",10.2 ± 1.2 pmol/min/mg of protein
"CSc1ccc(C)cc1 [MTS, methyl p-tolyl sulfide]","relative activity towards the sulfide, MTS vs. 5-DTP activity",[3],4.9 fold
same,"relative activity towards the sulfide, MTS vs. 5-DTP activity",[4],20 fold
"CC1Sc2ccccc2S1 [2-Methyl-1,3-Benzodithiole, 2-Methyl-1,3-benzodithiole]","S-oxide product cis (+)-(1R,2S), % Diastereomer","[1]; human, 0.5 mM, pH 8.4",28.2%
same,"S-oxide product cis (+)-(1R,2S), amount formed","[1]; human, 0.5 mM, pH 8.4",176 ± 34 pmol/min/mg of protein
same,"S-oxide product cis (-)-(1S,2R), % Diastereomer","[1]; human, 0.5 mM, pH 8.4",12.3%
same,"S-oxide product cis (-)-(1S,2R), amount formed","[1]; human, 0.5 mM, pH 8.4",77 ± 27 pmol/min/mg of protein
same,"S-oxide product trans (+)-(1R,2R), % Diastereomer","[1]; human, 0.5 mM, pH 8.4",59.5%
same,"S-oxide product trans (+)-(1R,2R), amount formed","[1]; human, 0.5 mM, pH 8.4",372 ± 35 pmol/min/mg of protein
same,"S-oxide product cis (+)-(1R,2S), % Diastereomer","[2]; human, 0.5 mM, pH 8.4",48.6%
same,"S-oxide product cis (+)-(1R,2S), amount formed","[2]; human, 0.5 mM, pH 8.4",54 ± 22 pmol/min/mg of protein
same,"S-oxide product cis (-)-(1S,2R), % Diastereomer","[2]; human, 0.5 mM, pH 8.4",19.8%
same,"S-oxide product cis (-)-(1S,2R), amount formed","[2]; human, 0.5 mM, pH 8.4",22 ± 2 pmol/min/mg of protein
same,"S-oxide product trans (+)-(1R,2R), % Diastereomer","[2]; human, 0.5 mM, pH 8.4",31.5%
same,"S-oxide product trans (+)-(1R,2R), amount formed","[2]; human, 0.5 mM, pH 8.4",35 ± 27 pmol/min/mg of protein
